The values below come from patent US9354230B2, “Methods and apparatus for conducting multiple measurements on a sample” (MESO SCALE TECHNOLOGIES, LLC., priority 2001, dated 2016).

Test [1] concerns the target T1, HIV Reverse Transcriptase (RT) RNA-dependent DNA polymerase (RDDP) activity (Human immunodeficiency virus type 1 group M subtype B, UniProt P04585).
T1 construct: HIV Reverse Transcriptase (RT), an enzyme with both a RNA-dependent DNA polymerase (RDDP) activity and an RNAse H activity
In words: ECL assay of HIV RT RDDP activity in one well of an MDMW Plate. The format is biochemical. The settings on record: 125 uM; data not shown.

Test [2] addresses T2, HIV Reverse Transcriptase (RT) RNAse H activity (Human immunodeficiency virus type 1 group M subtype B, UniProt P04585).
T2 construct: HIV Reverse Transcriptase (RT), an enzyme with both a RNA-dependent DNA polymerase (RDDP) activity and an RNAse H activity
In words: ECL assay of HIV RT RNAse H activity in one well of an MDMW Plate. The format is biochemical. The settings on record: 125 uM; data not shown.

Molecules are shown by their SMILES.

On to `Nc1ccn([C@H]2CC[C@@H](COP(=O)(O)OP(=O)(O)OP(=O)(O)O)O2)c(=O)n1` [ddCTP], for which the “inhibition of RDDP activity” value in test [1] is on record as “completely inhibited”. In addition, in test [2], the “effect on RNAse H activity” value is “no effect”.
